According to the supplement of paper PMC8671470:

These molecules were tested on KG-1. Details: 72 h.
Method in brief: (§1)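 Fifteen myeloid leukaemia lines in RPMI 1640 were treated for 72 h at 37 °C and 5% CO2 with five tenfold doses from 1 to 10,000 nM, in duplicate. ATP luminescence was normalised to vehicle and to a positive control at 10 µM, then fitted with a four-parameter log-logistic model. The IC50 came from these fits.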

Point of comparison: `C=C(C)[C@H]1Cc2c(ccc3c2O[C@@H]2COc4cc(OC)c(OC)cc4[C@@H]2C3=O)O1` [Rotenone], “IC50 (cell viability)” value 0.0684 µM. Against it:
- O=C(NNc1ccccc1)c1ccncc1 [PluriSln 1] — higher, > 10 µM
- CC(C)c1nc(CN(C)C(=O)N[C@H](C(=O)N[C@@H](Cc2ccccc2)C[C@H](O)[C@H](Cc2ccccc2)NC(=O)OCc2cncs2)C(C)C)cs1 [Ritonavir] — higher, > 10 µM
- Oc1ccc(Nc2nc(-c3ccc(Cl)cc3)cs2)cc1 [SKI II] — 57-fold higher, 3.93 µM
- O=C(O)c1cc(N=Nc2ccc(S(=O)(=O)Nc3ccccn3)cc2)ccc1O [Sulfasalazine] — higher, > 10 µM

What follows are molecules tested on KU-812. Details: 72 h.
Method in brief: as §1

Point of comparison: `Oc1ccc(Nc2nc(-c3ccc(Cl)cc3)cs2)cc1` [SKI II], “IC50 (cell viability)” value 2.9 µM. Against it:
- CCCCN1C[C@H](O)[C@@H](O)[C@H](O)[C@H]1CO [Miglustat] — higher, > 10 µM
- C=C(C=NNC(=N)N)NNC(=N)N [Mitoguazone] — 1.6-fold higher, 4.55 µM
- CCCCC/C=C\C/C=C\C/C=C\C/C=C\CCCCN1C(=O)C=CC1=O [N-Arachidonylmaleimide] — higher, > 10 µM
- CCCCCCCCCCC[C@@H](C[C@@H]1OC(=O)[C@H]1CCCCCC)OC(=O)[C@H](CC(C)C)NC=O [Orlistat] — higher, > 10 µM
- COc1ccc(C(=O)Nc2c(Cl)cncc2Cl)cc1OC1CCCC1 [Piclamilast] — higher, > 10 µM
- COc1cc(/C=C/C(=O)N2CCC=CC2=O)cc(OC)c1OC [Piperlongumine] — within 1.5-fold, 2.87 µM
- O=C(NNc1ccccc1)c1ccncc1 [PluriSln 1] — higher, > 10 µM
- CC(C)c1nc(CN(C)C(=O)N[C@H](C(=O)N[C@@H](Cc2ccccc2)C[C@H](O)[C@H](Cc2ccccc2)NC(=O)OCc2cncs2)C(C)C)cs1 [Ritonavir] — higher, > 10 µM
- C=C(C)[C@H]1Cc2c(ccc3c2O[C@@H]2COc4cc(OC)c(OC)cc4[C@@H]2C3=O)O1 [Rotenone] — 120-fold lower, 0.0232 µM
- O=C(O)c1cc(N=Nc2ccc(S(=O)(=O)Nc3ccccn3)cc2)ccc1O [Sulfasalazine] — higher, > 10 µM

The molecules below were run on LAMA-84. Details: 72 h.
Method in brief: as §1

Point of comparison: `O=C(NNc1ccccc1)c1ccncc1` [PluriSln 1], “IC50 (cell viability)” value 8.48 µM. Against it:
- CCCCN1C[C@H](O)[C@@H](O)[C@H](O)[C@H]1CO [Miglustat] — higher, > 10 µM
- C=C(C=NNC(=N)N)NNC(=N)N [Mitoguazone] — 3.7-fold lower, 2.29 µM
- CCCCC/C=C\C/C=C\C/C=C\C/C=C\CCCCN1C(=O)C=CC1=O [N-Arachidonylmaleimide] — higher, > 10 µM
- CCCCCCCCCCC[C@@H](C[C@@H]1OC(=O)[C@H]1CCCCCC)OC(=O)[C@H](CC(C)C)NC=O [Orlistat] — higher, > 10 µM
- COc1ccc(C(=O)Nc2c(Cl)cncc2Cl)cc1OC1CCCC1 [Piclamilast] — higher, > 10 µM
- COc1cc(/C=C/C(=O)N2CCC=CC2=O)cc(OC)c1OC [Piperlongumine] — 2.6-fold lower, 3.22 µM
- CC(C)c1nc(CN(C)C(=O)N[C@H](C(=O)N[C@@H](Cc2ccccc2)C[C@H](O)[C@H](Cc2ccccc2)NC(=O)OCc2cncs2)C(C)C)cs1 [Ritonavir] — higher, > 10 µM
- C=C(C)[C@H]1Cc2c(ccc3c2O[C@@H]2COc4cc(OC)c(OC)cc4[C@@H]2C3=O)O1 [Rotenone] — 110-fold lower, 0.0744 µM
- Oc1ccc(Nc2nc(-c3ccc(Cl)cc3)cs2)cc1 [SKI II] — within 1.5-fold, 6.79 µM
- O=C(O)c1cc(N=Nc2ccc(S(=O)(=O)Nc3ccccn3)cc2)ccc1O [Sulfasalazine] — higher, > 10 µM

Each molecule was assayed on ML-2. Details: 72 h.
Method in brief: as §1

Point of comparison: `C=C(C=NNC(=N)N)NNC(=N)N` [Mitoguazone], “IC50 (cell viability)” value 0.916 µM. Against it:
- CCCCN1C[C@H](O)[C@@H](O)[C@H](O)[C@H]1CO [Miglustat] — higher, > 10 µM
- CCCCC/C=C\C/C=C\C/C=C\C/C=C\CCCCN1C(=O)C=CC1=O [N-Arachidonylmaleimide] — higher, > 10 µM
- CCCCCCCCCCC[C@@H](C[C@@H]1OC(=O)[C@H]1CCCCCC)OC(=O)[C@H](CC(C)C)NC=O [Orlistat] — higher, > 10 µM
- COc1ccc(C(=O)Nc2c(Cl)cncc2Cl)cc1OC1CCCC1 [Piclamilast] — higher, > 10 µM
- COc1cc(/C=C/C(=O)N2CCC=CC2=O)cc(OC)c1OC [Piperlongumine] — 1.8-fold higher, 1.66 µM
- O=C(NNc1ccccc1)c1ccncc1 [PluriSln 1] — higher, > 10 µM
- CC(C)c1nc(CN(C)C(=O)N[C@H](C(=O)N[C@@H](Cc2ccccc2)C[C@H](O)[C@H](Cc2ccccc2)NC(=O)OCc2cncs2)C(C)C)cs1 [Ritonavir] — higher, > 10 µM
- C=C(C)[C@H]1Cc2c(ccc3c2O[C@@H]2COc4cc(OC)c(OC)cc4[C@@H]2C3=O)O1 [Rotenone] — 2.8-fold lower, 0.322 µM
- Oc1ccc(Nc2nc(-c3ccc(Cl)cc3)cs2)cc1 [SKI II] — 6.1-fold higher, 5.58 µM
- O=C(O)c1cc(N=Nc2ccc(S(=O)(=O)Nc3ccccn3)cc2)ccc1O [Sulfasalazine] — higher, > 10 µM

Each molecule was assayed on MOLM-13. Details: 72 h.
Method in brief: as §1

Point of comparison: `COc1cc(/C=C/C(=O)N2CCC=CC2=O)cc(OC)c1OC` [Piperlongumine], “IC50 (cell viability)” value 1.93 µM. Against it:
- CCCCN1C[C@H](O)[C@@H](O)[C@H](O)[C@H]1CO [Miglustat] — higher, > 10 µM
- C=C(C=NNC(=N)N)NNC(=N)N [Mitoguazone] — 2-fold lower, 0.944 µM
- CCCCC/C=C\C/C=C\C/C=C\C/C=C\CCCCN1C(=O)C=CC1=O [N-Arachidonylmaleimide] — higher, > 10 µM
- CCCCCCCCCCC[C@@H](C[C@@H]1OC(=O)[C@H]1CCCCCC)OC(=O)[C@H](CC(C)C)NC=O [Orlistat] — higher, > 10 µM
- COc1ccc(C(=O)Nc2c(Cl)cncc2Cl)cc1OC1CCCC1 [Piclamilast] — higher, > 10 µM
- O=C(NNc1ccccc1)c1ccncc1 [PluriSln 1] — 3-fold higher, 5.72 µM
- CC(C)c1nc(CN(C)C(=O)N[C@H](C(=O)N[C@@H](Cc2ccccc2)C[C@H](O)[C@H](Cc2ccccc2)NC(=O)OCc2cncs2)C(C)C)cs1 [Ritonavir] — higher, > 10 µM
- C=C(C)[C@H]1Cc2c(ccc3c2O[C@@H]2COc4cc(OC)c(OC)cc4[C@@H]2C3=O)O1 [Rotenone] — 11-fold lower, 0.176 µM
- Oc1ccc(Nc2nc(-c3ccc(Cl)cc3)cs2)cc1 [SKI II] — 4.6-fold higher, 8.97 µM
- O=C(O)c1cc(N=Nc2ccc(S(=O)(=O)Nc3ccccn3)cc2)ccc1O [Sulfasalazine] — higher, > 10 µM

These molecules were tested on MV4-11. Details: 72 h.
Method in brief: as §1

Point of comparison: `C=C(C)[C@H]1Cc2c(ccc3c2O[C@@H]2COc4cc(OC)c(OC)cc4[C@@H]2C3=O)O1` [Rotenone], “IC50 (cell viability)” value 0.156 µM. Against it:
- CCCCN1C[C@H](O)[C@@H](O)[C@H](O)[C@H]1CO [Miglustat] — higher, > 10 µM
- C=C(C=NNC(=N)N)NNC(=N)N [Mitoguazone] — 7.2-fold higher, 1.13 µM
- CCCCC/C=C\C/C=C\C/C=C\C/C=C\CCCCN1C(=O)C=CC1=O [N-Arachidonylmaleimide] — higher, > 10 µM
- CCCCCCCCCCC[C@@H](C[C@@H]1OC(=O)[C@H]1CCCCCC)OC(=O)[C@H](CC(C)C)NC=O [Orlistat] — higher, > 10 µM
- COc1ccc(C(=O)Nc2c(Cl)cncc2Cl)cc1OC1CCCC1 [Piclamilast] — higher, > 10 µM
- COc1cc(/C=C/C(=O)N2CCC=CC2=O)cc(OC)c1OC [Piperlongumine] — 6.1-fold higher, 0.959 µM
- O=C(NNc1ccccc1)c1ccncc1 [PluriSln 1] — higher, > 10 µM
- CC(C)c1nc(CN(C)C(=O)N[C@H](C(=O)N[C@@H](Cc2ccccc2)C[C@H](O)[C@H](Cc2ccccc2)NC(=O)OCc2cncs2)C(C)C)cs1 [Ritonavir] — higher, > 10 µM
- Oc1ccc(Nc2nc(-c3ccc(Cl)cc3)cs2)cc1 [SKI II] — 21-fold higher, 3.2 µM
- O=C(O)c1cc(N=Nc2ccc(S(=O)(=O)Nc3ccccn3)cc2)ccc1O [Sulfasalazine] — higher, > 10 µM

The molecules below were run on Mono-Mac-6. Details: 72 h.
Method in brief: as §1

For `CCCCN1C[C@H](O)[C@@H](O)[C@H](O)[C@H]1CO` [Miglustat], the “IC50 (cell viability)” value was greater than 10 µM.
